The source of these data is article PMC10555500, “Evaluation of the Antiproliferative Properties of CpRu Complexes Containing N-Methylated Triazaphosphaadamantane Derivatives” (Bioinorganic Chemistry and Applications, 2023).

Series [1] has as its system MDA-MB-231 breast cancer cells. Description: MTT cytotoxicity assay, MDA-MB-231 cells. The note with it: for IC50: 24 h incubation, MTT, average of at least three experiments (±SD); for Cytotoxicity (in words): MDA-MB-231, MTT, 24 h. Format: cell-based, human. The protocol:
(§1) The MDA-MB-231 and MCF-7 human breast cancer cells were purchased from ATCC. The MDA-MB-231 and MCF-7 cells were grown in Dulbecco's modified Eagles' medium (DMEM high glucose) (Capricorn Scientific) at 37°C in 5% CO2 supplemented with 10% fetal bovine serum (Capricorn Scientific). HDF cells were purchased from Merck and were grown in the fibroblast growth medium. All cells were adherent in monolayers and, upon confluence, were washed with phosphate buffer saline (PBS) and harvested by digestion with trypsin-EDTA 0.05% (v/v). The cells were suspended and transferred into new, sterile, culture flasks for maintenance or seeded in sterile test microplates for different assays. All cells were manipulated under aseptic conditions in a flow chamber.
(§2) The cells were adherent in monolayers and, upon confluence, were harvested by digestion with trypsin. The cytotoxicity of the complexes against the tumour cells was assessed using the colorimetric assay MTT […], which evaluates the metabolic activity of viable cells. This assay measures the conversion of yellow tetrazolium into purple formazan by an active mitochondrial dehydrogenase in living cells. For this purpose, the cells (10–20 × 10^3 in 200 μL of the medium) were seeded into 96-well plates and incubated in a 5% CO2 incubator at 37°C. The cells were settled for 24 h followed by the addition of a dilution series of the complexes in a medium (200 μL). The complexes were first solubilized in 100% DMSO, given a 10 mM stock solution, and then in a medium within the concentration range of 0.1–100 µM. […] After 24 h of incubation, the treatment solutions were removed by aspiration, and MTT solution (200 μL, 0.5 mg·mL^−1 in PBS) was added to each well. After 3 h at 37°C/5% CO2, the solution was removed, and the purple formazan crystals formed inside the cells were dissolved in DMSO (200 μL) by thorough shaking. The cellular viability was evaluated by measuring the absorbance at 570 nm by using a microplate spectrophotometer. The IC50 values were obtained by dose-response curves using the GraphPad Prism software (vs. 5).
The MDA-MB-231 and MCF-7 human breast cancer cells were purchased from ATCC. MDA-MB-231 and MCF-7 cells were grown in Dulbecco’s modified Eagles’s medium (DMEM high glucose) (Capricorn Scientific) at 37 °C in 5% CO2 supplemented with 10% fetal bovine serum (Capricorn Scientific). All cells were adherent in monolayers and, upon confluence, were washed with phosphate buffer saline (PBS) and harvested by digestion with Trypsin-EDTA 0.05% (v/v). The cells were suspended and transferred into new, sterile, culture flasks, for maintenance or seeded in sterile test microplates for different assays. All cells were manipulated under aseptic conditions in a flow chamber.
The cells were adherent in monolayers and, upon confluency, were harvested by digestion with trypsin. The cytotoxicity of the complexes against the tumour cells was assessed using the colorimetric assay MTT […], which evaluate the metabolic activity of viable cells. This assay measures the conversion of the yellow tetrazolium into purple formazan by an active mitochondrial dehydrogenase in living cells. For this purpose, cells (10-20 × 10^3 in 200 μL of medium) were seeded into 96-well plates and incubated in a 5% CO2 incubator at 37 °C. The cells were settled for 24 h followed by the addition of a dilution series of the complexes in medium (200 μL). The complexes were first solubilized in 100% DMSO, given a 10 mM stock solution, and then in medium within the concentration range of 0.1–100 µM. […] After 24 h of incubation, the treatment solutions were removed by aspiration, and MTT solution (200 μL, 0.5 mg·mL^-1 in PBS) was added to each well. After 3 h at 37 °C/5% CO2, the solution was removed, and the purple formazan crystals formed inside the cells were dissolved in DMSO (200 μL) by thorough shaking. […]
Background: Tetrazolium assays rely on reduction of a dye to a coloured formazan, in cell work by metabolically active cells.

A short description of series [2]: Stability in DMSO-d6 and DMSO-d6/D2O monitored by 31P{1H} NMR. Format: physicochemical. The note with it: room temperature and 37°C, 48 h, 31P{1H} NMR. The source says: The assessment of the biological properties of the complexes requires their dissolution in a cell culture medium which is mainly constituted by water. When the complex is not hydrosoluble enough, the used protocol contemplates preliminary dissolution in DMSO before the addition to the culture medium. Thus, it is important to determine the stability and behaviour of the complexes in both DMSO and water/DMSO mixtures to check whether different species have been formed when dissolved. Dissolutions in DMSO-d6 and DMSO-d6/D2O of the new complexes 8 and 11 were monitored by ^31P{^1H} NMR over time at room temperature and 37°C. The stability studies of the rest of the complexes (1‐7, 9, 10) were published previously. All experiments were performed by a similar procedure: the complex (0.01 g) was introduced into a 5 mm NMR tube and dissolved in 0.5 mL of degassed solvent (DMSO-d6 and a 1 : 1 mixture of DMSO-d6/D2O). The solution was left at room temperature and monitored by ^31P{^1H} NMR first every 15 minutes, and later in longer periods. Stability was also monitored at incubation cell-based assay temperature (37°C).
All compounds were studied for their stability in 100% DMSO-d6 and DMSO-d6/D2O mixture by using NMR spectroscopy in common aerobic conditions. All experiments were performed by a similar procedure: the complex (0.01 g) was introduced into a 5 mm NMR tube and dissolved in 0.5 mL of degassed solvent (DMSO-d6 and a 1:1 mixture of DMSO-d6/D2O). The solution was left at room temperature and monitored by ^31P{^1H} NMR first every 15 minutes, and later in longer time periods. Stability was also monitored at incubation cell-based assays temperature (37 °C).

The subject of series [3] is MCF-7 breast cancer cells. Description: MTT cytotoxicity assay, MCF-7 cells. The note with it: 24 h incubation, average of at least three experiments (±SD). It counts as cell-based, human. The protocol: as §1
The cells were adherent in monolayers and, upon confluence, were harvested by digestion with trypsin. The cytotoxicity of the complexes against the tumour cells was assessed using the colorimetric assay MTT […], which evaluates the metabolic activity of viable cells. This assay measures the conversion of yellow tetrazolium into purple formazan by an active mitochondrial dehydrogenase in living cells. For this purpose, the cells (10–20 × 10^3 in 200 μL of the medium) were seeded into 96-well plates and incubated in a 5% CO2 incubator at 37°C. The cells were settled for 24 h followed by the addition of a dilution series of the complexes in a medium (200 μL). The complexes were first solubilized in 100% DMSO, given a 10 mM stock solution, and then in a medium within the concentration range of 0.1–100 µM. […] The cellular viability was evaluated by measuring the absorbance at 570 nm by using a microplate spectrophotometer. […]
The cells were adherent in monolayers and, upon confluency, were harvested by digestion with trypsin. The cytotoxicity of the complexes against the tumour cells was assessed using the colorimetric assay MTT […], which evaluate the metabolic activity of viable cells. […]

The test system of series [4] is normal human fibroblasts (HDF). Kind of series: MTT cytotoxicity assay, normal human dermal fibroblasts. It counts as cell-based. The protocol: as §1, §2
Series [5] addresses human serum albumin (HSA) (Homo sapiens, UniProt P02768). Description: Binding to human serum albumin by steady-state and time-resolved Trp214 fluorescence. The protocol:
The stock solutions of HSA were freshly prepared for each experiment by gently dissolving protein in PBS pH 7.4 (tablets from Fisher) for 1 hour to allow protein to completely hydrate. The concentration of the protein in the stock solutions was determined by spectrophotometry using the molar absorption coefficient at 280 nm ε280(HSA) = 36,850 M^−1·cm^−1 [38].
In each essay, all spectroscopic measurements were carried out on individually prepared samples to ensure the same preincubation time at (37.0 ± 0.1)°C, the same % of DMSO in the final samples, and the same exposure to excitation light and to avoid the need for dilution corrections. Moreover, for a direct titration protocol, a highly concentrated stock solution of the compounds in the buffer would be required, which would raise solubility issues. Dimethylsulfoxide (DMSO, from Fisher) was used to prepare concentrated stock solutions of each complex, followed by appropriate dilution to obtain the desired concentration. The DMSO content was kept at 2% (v/v) in PBS pH 7.4 in all samples. Dilutions were carried out immediately before sample preparation.
Fluorescence measurements were performed at 25.0 ± 0.1°C. The final protein concentration in the individually prepared samples (3.72 to 5 μM) was kept constant in each assay, and the complex concentration was varied to obtain desired HSA: Ru-complex molar ratios ranging from 1 : 0.25 to 1 : 10. A control sample containing the same amount of protein and final DMSO content and with no complex was also prepared for each experiment. Appropriate blank samples with no protein but with the same complex concentrations were prepared as well for background correction.
The steady-state fluorescence intensity was measured with excitation at 295 nm, and emission spectra were collected with bandwidths of 4 nm for both excitation and emission. For Stern–Volmer plots, the fluorescence intensity with emission at 340 nm was selected because it is near the maximum emission wavelength (so the sensitivity is close to maximum), but it is further to red in relation to the water Raman scattering peak. These values were corrected for the absorption and emission inner filter effects using the absorbance recorded for each sample at the excitation and emission wavelengths used for the steady-state quenching analysis. For time-resolved fluorescence measurements, the single-photon-counting technique was used with nanoLED N-280 (Horiba Jobin Yvon) as the pulsed excitation source (280 nm) and with emission collected at 350 nm (13 nm emission bandwidth), eliminating the contribution of the emission by tyrosine residues.
The experimental fluorescence intensity decays of HSA in buffer solution can be described by a sum of exponentials:(1) It=∑i=1npiexp−t/τi, where pi and τi are the pre-exponential factors and lifetime of component i, respectively. The amplitude or normalized pre-exponential of each lifetime component αi is pi/Σipi with Σiαi = 1. Fluorescence decays were analysed by an iterative deconvolution method using the TRFA Data Processor software (version 1.4; Minsk, Belarus), and the instrument response function was obtained using scattering by a colloidal suspension of silica (Ludox®, Sigma-Aldrich) diluted in water. Criteria for judging the quality of the fit were reduced χ^2 close to 1 and a random distribution of weighted residuals and residual autocorrelation.
To evaluate changes in the quantum yield by processes affecting the fluorescence lifetimes of HSA, the amplitude-weighted mean fluorescence lifetime ( τ¯ ) was calculated using the following equation:(2) τ¯=∑i=1nαiτi.
The stock solutions of HSA were freshly prepared for each experiment by gently dissolving the protein in PBS pH 7.4 (tablets from Fisher) for 1 hour to allow the protein to completely hydrate. The concentration of protein in the stock solutions was determined by spectrophotometry using the molar absorption coefficient at 280 nm ε280(HSA) = 36,850 M^−1 cm^−1.[8] […]

Chain of human serum albumin (HSA) (P02768 25-609): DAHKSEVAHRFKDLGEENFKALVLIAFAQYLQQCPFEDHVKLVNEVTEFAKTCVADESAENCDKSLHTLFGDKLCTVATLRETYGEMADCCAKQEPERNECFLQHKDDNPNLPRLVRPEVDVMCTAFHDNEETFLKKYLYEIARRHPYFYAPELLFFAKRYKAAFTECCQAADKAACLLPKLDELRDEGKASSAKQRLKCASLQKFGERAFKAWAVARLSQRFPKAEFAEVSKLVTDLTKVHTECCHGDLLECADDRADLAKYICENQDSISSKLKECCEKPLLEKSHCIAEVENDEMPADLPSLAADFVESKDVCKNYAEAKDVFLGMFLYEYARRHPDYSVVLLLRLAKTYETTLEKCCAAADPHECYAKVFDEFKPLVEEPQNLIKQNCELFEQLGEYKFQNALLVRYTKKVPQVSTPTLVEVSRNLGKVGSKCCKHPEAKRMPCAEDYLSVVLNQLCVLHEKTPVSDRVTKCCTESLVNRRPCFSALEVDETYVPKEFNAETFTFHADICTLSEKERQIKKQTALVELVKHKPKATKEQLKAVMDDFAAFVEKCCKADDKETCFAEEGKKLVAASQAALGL

For orientation: IC50 means the midpoint of a concentration-inhibition curve. A high value points to weaker potency. Take `C1N2CN3CN1CP(C2)C3` [Compound 1, 1,3,5-triaza-7-phosphaadamantane]: in series [1] (Homo sapiens, MDA-MB-231), the IC50 is above 100 µM.

As to `C[N+]12CN3CN(CP(C3)C1)C2` [Compound 2, N-methyl-1,3,5-triaza-7-phosphaadamantane], the IC50 in series [1] (Homo sapiens, MDA-MB-231) was above 100 µM.

In turn, `C[N+]12CN3CP(C1)C[N+](C)(C3)C2` [Compound 3, N,N′-dimethyl-1,3,5-triaza-7-phosphaadamantane] showed an IC50 in series [1] (Homo sapiens, MDA-MB-231) above 100 µM.

With `[Cl][Ru+]([P]12CN3CN(CN(C3)C1)C2)[P]12CN3CN(CN(C3)C1)C2.c1cc[cH-]c1` [Compound 4, [RuClCp(PTA)2]], in series [1], the concentration for half-maximal inhibition (IC50) was above 100 µM and the “Cytotoxicity (in words)” value is recorded as “noncytotoxic”.

`[Cl][Ru+]([P]12CN3CN(CN(C3)C1)C2)[P](c1ccccc1)(c1ccccc1)c1ccccc1.c1cc[cH-]c1` [Compound 5, [RuClCp(PPh3)(PTA)]]: in series [1], the IC50 came to 60 ± 19 µM and the “Cytotoxicity (in words)” value is reported as “Moderate cytotoxicity”.

`C[N+]12CN3CN(C1)C[P]([Ru+]([Cl])[P](c1ccccc1)(c1ccccc1)c1ccccc1)(C3)C2.O=S(=O)([O-])C(F)(F)F.c1cc[cH-]c1` [Compound 6, [RuClCp(PPh3)(mPTA)](CF3SO3)]: the IC50 in series [1] turned out to be 8.3 ± 1.4 µM. Moreover, in series [1] (MDA-MB-231, 24 h), the “Fold increase in cytotoxicity with respect to complex 5” value turned out to be 7 fold.

As for `CN1CN2C[NH+](C)C[P]([Ru+]([Cl])[P](c3ccccc3)(c3ccccc3)c3ccccc3)(C1)C2.O=S(=O)([O-])C(F)(F)F.c1cc[cH-]c1` [Compound 7, [RuClCp(HdmoPTA)(PPh3)](CF3SO3)], the IC50 in series [1] was 2.5 ± 1.1 µM. Besides, in series [1] (MDA-MB-231, 24 h), the “Fold increase in antiproliferative activity with respect to complex 6” value was found to be 4 fold.

Regarding `CN1CN2C[NH+](C)C[P]([Ru+2]([P](c3ccccc3)(c3ccccc3)c3ccccc3)[S](C)(C)=O)(C1)C2.O=S(=O)([O-])C(F)(F)F.O=S(=O)([O-])C(F)(F)F.c1cc[cH-]c1` [Compound 8, [RuCp(DMSO-κS)(HdmoPTA)(PPh3)](CF3SO3)2], half-maximal inhibition in series [1] (IC50) was put at 15 ± 2.2 µM. In addition, in series [2], the “Stability in DMSO-d6” value was “stable” and the “Stability in DMSO-d6/D2O (1:1)” value is recorded as “stable”.

`CN1CN2C[NH+](C)C[P]([Ru+2]([P](c3ccccc3)(c3ccccc3)c3ccccc3)[P](c3ccccc3)(c3ccccc3)c3ccccc3)(C1)C2.O=S(=O)([O-])C(F)(F)F.O=S(=O)([O-])C(F)(F)F.c1cc[cH-]c1` [Compound 9, [RuCp(HdmoPTA)(PPh3)2](CF3SO3)2]: the IC50 stood at 0.86 ± 0.13 µM in series [1]; 0.48 ± 0.07 µM in series [3]; 1.23 ± 0.32 µM in series [4] (24 h incubation, MTT, normal human fibroblasts). In addition, the “Fold less cytotoxic for fibroblasts (HDF) than for MCF-7 cells” value in series [4] (selectivity HDF vs MCF-7) was 2-3 fold. Also, the “Fold less cytotoxic for fibroblasts (HDF) than for MDA-MB-231 cells” value in series [4] (selectivity HDF vs MDA-MB-231) is listed as 1.5 fold. Besides, in series [5] (20 µM compound (1:4 HSA:compound), 24 h, λem 340 nm), the “Emission intensity of Trp214 relative to value in the absence of compound” value is on record as “approximately 60%”. For the same compound, the Type of quenching entry in series [5] (HSA-Trp214 fluorescence) was “Static”. Further, the “Spectral shift of Trp214 emission” value in series [5] (steady-state emission, 24 h incubation) is listed as “do not induce any spectral shift”. The “Effect on amplitude-weighted mean fluorescence lifetime of HSA-Trp214” value in series [5] (time-resolved fluorescence, λem 350 nm) is “does not affect”.
